This note sets out measurements from patent US7612225B2, “Crystal of triterpene derivative” (Shionogi & Co., Ltd., priority 2004, dated 2009).

Data set [1] in a line: Stability against light (30±2° C., 1,200,000 or 3,600,000 Lux·hr; HPLC). The class given is physicochemical. As to conditions: for change of total amount of related substances of Compound (I) (in words): after storage under light of 1,200,000 or 3,600,000 Lux·hr. The procedure:
The form I dry crystals and the form II crystals of Compound (I) were used as samples. About 3 g of each of the samples was placed in each petri dish, and was then stored at an average temperature of 30±2° C. under light of 1,200,000 Lux·hr or 3,600,000 Lux·hr. After storage, the amount of Compound (I) and the total amount of related substances of Compound (I) were measured by HPLC.

The nature of data set [2]: Storage stability (40° C., 75% RH, 6 months; HPLC). In kind it is physicochemical. As to the method: The form I dry crystals and the form II crystals of Compound (I) were used as samples. About 3 g of each of the samples was placed in a double polyethylene bag, and the bag containing the sample was stored in an aluminum can at 40° C. and 75% RH. After storage for 6 months, the amount of Compound (I) and the total amount of related substances of Compound (I) were measured by HPLC.

Where [3] appears, read: 1,200,000 Lux·hr, 30±2° C., petri dish.
The mark [4] stands for this setting: 6 months at 40° C. and 75% RH, double polyethylene bag in aluminum can.

Consider `CC1(C)CC[C@]2(C(=O)O)CC[C@]3(COC(=O)/C=C/c4cc(O)ccc4NC(=O)/C=C/C(=O)O)C(=CCC4[C@@]5(C)CCC(=O)C(C)(C)C5CC[C@]43C)C2C1` (some centres unmarked) [Form I dry crystal, reference compound], for which the “Total amount of related substances(%)” value was 0.27% in data set [1] (1,200,000 Lux·hr, 30±2° C.); 0.16% in data set [1] (Initial value); 0.43% in data set [2] (6 months at 40° C. and 75% RH); 0.16% in data set [2] (Initial value). The “Amount of Compound (I)(%)” value in data set [1] (setting [3]) is 99.2%; in data set [1] (Initial value), 99.8%; in data set [2] (setting [4]), 97.8%; in data set [2] (Initial value), 99.8%. Further, the “change of total amount of related substances of Compound (I) (in words)” value was “increased” in data set [1] (listed as form I dry crystals); “increased” in data set [2] (after storage for 6 months at 40° C. and 75% RH, listed as form I dry crystals). The “Amount of analogue B” value in data set [2] (6 months at 40° C. and 75% RH) is 0.21%; in data set [2] (Initial value), less than 0.05%. The “change of amount of analogue B (in words)” value in data set [2] (after storage for 6 months at 40° C. and 75% RH) is listed as “significantly increased”.
`CC1(C)CC[C@]2(C(=O)O)CC[C@]3(COC(=O)/C=C/c4cc(O)ccc4NC(=O)/C=C/C(=O)O)C(=CCC4[C@@]5(C)CCC(=O)C(C)(C)C5CC[C@]43C)C2C1` (some centres unmarked) [Form II crystal]: the “Total amount of related substances(%)” value worked out at 0.17% in data set [1] (1,200,000 Lux·hr, 30±2° C.); 0.18% in data set [1] (3,600,000 Lux·hr, 30±2° C.); 0.15% in data set [1] (Initial value); 0.17% in data set [2] (6 months at 40° C. and 75% RH); 0.21% in data set [2] (Initial value). Besides, the “Amount of Compound (I)(%)” value in data set [1] (setting [3]) came to 99.4%; in data set [1] (3,600,000 Lux·hr, 30±2° C., petri dish), 99.3%; in data set [1] (Initial value), 100.3%; in data set [2] (setting [4]), 98.6%; in data set [2] (Initial value), 98.9%. For the same compound, the “change of total amount of related substances of Compound (I) (in words)” value in data set [1] (listed as form II crystals) is reported as “hardly changed”; in data set [2] (after storage for 6 months at 40° C. and 75% RH, listed as form II crystals), “hardly changed”. In data set [1] (light of 1,200,000 or 3,600,000 Lux·hr), the “stability against light (in words)” value is on record as “stable against light”. Further, the “Amount of analogue B” value in data set [2] (6 months at 40° C. and 75% RH) is recorded as less than 0.05%; in data set [2] (Initial value), less than 0.05%. The “storage stability (in words)” value in data set [2] (6 months at 40° C. and 75% RH) was “stable”.
